pIC50: −log10 of the molar value. Structures can show the parent of a compound that is named as a salt.
target: ROCK2 (Homo sapiens, UniProt O75116); assay: ROCK2 kinase inhibition assay (Caliper LABCHIP, FITC peptide substrate); type: biochemical; details: 5 μM ATP, 1.5 μM peptide substrate; value ranges
Summary of the method: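 Dose-response curves gave IC50 from inhibition of peptide phosphorylation, measured by LabChip separation after EDTA stop. Reactions used 1.5 μM FITC-labelled peptide, 5 μM ATP, 20 mM HEPES pH 7.5 with MgCl2, Brij-35, DTT, and under 2% DMSO.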

Chain of ROCK2 (O75116 whole entry, species assumed): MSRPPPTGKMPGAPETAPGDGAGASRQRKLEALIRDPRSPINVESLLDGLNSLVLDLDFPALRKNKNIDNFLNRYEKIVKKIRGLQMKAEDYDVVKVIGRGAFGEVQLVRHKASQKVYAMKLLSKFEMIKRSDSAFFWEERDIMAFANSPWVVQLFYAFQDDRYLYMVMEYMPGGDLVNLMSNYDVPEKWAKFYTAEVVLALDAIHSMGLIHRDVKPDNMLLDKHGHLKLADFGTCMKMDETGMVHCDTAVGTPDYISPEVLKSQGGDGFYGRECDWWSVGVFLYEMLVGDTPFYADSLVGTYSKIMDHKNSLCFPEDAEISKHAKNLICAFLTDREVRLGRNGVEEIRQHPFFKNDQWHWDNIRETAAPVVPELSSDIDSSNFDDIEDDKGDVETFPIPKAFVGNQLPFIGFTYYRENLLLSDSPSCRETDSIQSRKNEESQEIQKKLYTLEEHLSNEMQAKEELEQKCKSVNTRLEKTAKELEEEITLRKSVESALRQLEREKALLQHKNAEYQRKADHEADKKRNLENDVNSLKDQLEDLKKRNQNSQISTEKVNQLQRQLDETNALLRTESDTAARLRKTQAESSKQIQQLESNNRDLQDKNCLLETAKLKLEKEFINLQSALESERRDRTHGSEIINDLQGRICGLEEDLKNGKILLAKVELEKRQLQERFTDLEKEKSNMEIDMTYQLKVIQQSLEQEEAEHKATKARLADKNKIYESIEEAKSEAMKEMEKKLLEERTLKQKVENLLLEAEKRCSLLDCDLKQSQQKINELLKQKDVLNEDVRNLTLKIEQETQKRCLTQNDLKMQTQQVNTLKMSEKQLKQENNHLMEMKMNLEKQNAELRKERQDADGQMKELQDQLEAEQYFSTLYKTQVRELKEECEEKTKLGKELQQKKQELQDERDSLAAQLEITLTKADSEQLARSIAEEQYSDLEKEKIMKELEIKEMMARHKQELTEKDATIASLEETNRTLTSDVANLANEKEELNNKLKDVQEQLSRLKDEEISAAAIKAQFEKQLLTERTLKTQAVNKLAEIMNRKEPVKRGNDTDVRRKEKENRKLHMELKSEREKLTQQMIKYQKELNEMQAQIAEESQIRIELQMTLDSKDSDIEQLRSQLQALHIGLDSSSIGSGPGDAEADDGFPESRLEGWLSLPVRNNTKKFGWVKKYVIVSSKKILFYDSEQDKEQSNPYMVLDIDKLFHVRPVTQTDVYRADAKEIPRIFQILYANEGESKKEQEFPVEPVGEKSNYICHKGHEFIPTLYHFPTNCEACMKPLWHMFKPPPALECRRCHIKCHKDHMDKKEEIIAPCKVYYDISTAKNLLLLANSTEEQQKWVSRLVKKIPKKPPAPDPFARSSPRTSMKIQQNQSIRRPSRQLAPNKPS

| SMILES | pIC50 |
| --- | --- |
| COc1cccc(CN2CCN(c3ccc(-c4ccnc5[nH]ccc45)cc3)C2=O)c1 [Example 65, 1-(4-(1H-Pyrrolo[2,3-b]pyridin-4-yl)phenyl)-3-(3-methoxybenzyl)imidazolidin-2-one] | 7.70 to 8.68 |
| COc1ccccc1CCn1ccn(-c2ccc(-c3cn[nH]c3)cc2)c1=O [Example 66, 1-(4-(1H-Pyrazol-4-yl)phenyl)-3-(2-methoxyphenethyl)-1H-imidazol-2(3H)-one] | 5.70 to 6.70 |
| O=c1n(Cc2ccc(F)cc2)ccn1-c1ccc(-c2cn[nH]c2)cc1 [Example 67, 1-(4-(1H-pyrazol-4-yl)phenyl)-3-(4-fluorobenzyl)-1H-imidazol-2(3H)-one] | 6.70 to 7.70 |
| O=c1n(Cc2c(F)cccc2F)ccn1-c1ccc(-c2cn[nH]c2)cc1 [Example 68, 1-(4-(1H-pyrazol-4-yl)phenyl)-3-(2,6-difluorobenzyl)-1H-imidazol-2(3H)-one] | 6.70 to 7.70 |
| O=c1n(Cc2ccccc2F)ccn1-c1ccc(-c2cn[nH]c2)cc1 [Example 69, 1-(4-(1H-pyrazol-4-yl)phenyl)-3-(2-fluorobenzyl)-1H-imidazol-2(3H)-one] | 6.70 to 7.70 |
| COc1cccc(CN2CC(=O)N(c3ccc(-c4cn[nH]c4)cc3)C2=O)c1 [Example 80, 3-(4-(1H-Pyrazol-4-yl)phenyl)-1-(3-methoxybenzyl)imidazolidine-2,4-dione] | 6.70 to 7.70 |
| O=C1CN(Cc2cccc(F)c2)C(=O)N1c1ccc(-c2cn[nH]c2)cc1 [Example 81, 3-(4-(1H-pyrazol-4-yl)phenyl)-1-(3-fluorobenzyl)imidazolidine-2,4-dione] | 5.70 to 6.70 |
| O=C1CN(Cc2ccccc2Cl)C(=O)N1c1ccc(-c2cn[nH]c2)cc1 [Example 82, 3-(4-(1H-pyrazol-4-yl)phenyl)-1-(2-chlorobenzyl)imidazolidine-2,4-dione] | 6.70 to 7.70 |
| O=C1CN(Cc2cc(F)ccc2F)C(=O)N1c1ccc(-c2cn[nH]c2)cc1 [Example 83, 3-(4-(1H-pyrazol-4-yl)phenyl)-1-(2,5-difluorobenzyl)imidazolidine-2,4-dione] | 5.70 to 6.70 |
| COc1cc(F)cc(CN2CC(=O)N(c3ccc(-c4cn[nH]c4)cc3)C2=O)c1 [Example 84, 3-(4-(1H-pyrazol-4-yl)phenyl)-1-(3-fluoro-5-methoxybenzyl)imidazolidine-2,4-dione] | 6.70 to 7.70 |
| O=C1CN(CCc2ccccc2)C(=O)N1c1ccc(-c2cn[nH]c2)cc1 [Example 85, 3-(4-(1H-pyrazol-4-yl)phenyl)-1-phenethylimidazolidine-2,4-dione] | 5.70 to 6.70 |
| O=C1CN(Cc2ccccc2F)C(=O)N1c1ccc(-c2cn[nH]c2)cc1 [Example 86, 3-(4-(1H-pyrazol-4-yl)phenyl)-1-(2-fluorobenzyl)imidazolidine-2,4-dione] | 5.70 to 6.70 |
| O=C1CN(Cc2ccccc2)C(=O)N1c1ccc(-c2cn[nH]c2)cc1 [Example 87, 3-(4-(1H-pyrazol-4-yl)phenyl)-1-benzylimidazolidine-2,4-dione] | 5.70 to 6.70 |
| COc1cc(N2C(=O)CN(Cc3ccccc3)C2=O)ccc1-c1cn[nH]c1 [Example 88, 1-benzyl-3-(3-methoxy-4-(1H-pyrazol-4-yl)phenyl)imidazolidine-2,4-dione] | 5.70 to 6.70 |
| COc1cc(N2C(=O)CN(Cc3ccccc3Cl)C2=O)ccc1-c1cn[nH]c1 [Example 89, 1-(2-chlorobenzyl)-3-(3-methoxy-4-(1H-pyrazol-4-yl)phenyl)imidazolidine-2,4-dione] | 5.70 to 6.70 |
| COc1cc(N2C(=O)CN(Cc3cccc(F)c3)C2=O)ccc1-c1cn[nH]c1 [Example 90, 1-(3-fluorobenzyl)-3-(3-methoxy-4-(1H-pyrazol-4-yl)phenyl)imidazolidine-2,4-dione] | 6.70 to 7.70 |
| COc1cc(N2C(=O)CN(Cc3ccccc3F)C2=O)ccc1-c1cn[nH]c1 [Example 91, 1-(2-fluorobenzyl)-3-(3-methoxy-4-(1H-pyrazol-4-yl)phenyl)imidazolidine-2,4-dione, TFA] | 5.70 to 6.70 |
| COc1cc(N2C(=O)CN(Cc3cc(F)ccc3F)C2=O)ccc1-c1cn[nH]c1 [Example 92, 1-(2,5-difluorobenzyl)-3-(3-methoxy-4-(1H-pyrazol-4-yl)phenyl)imidazolidine-2,4-dione, TFA] | 5.70 to 6.70 |
| COc1cccc(CN2CC(=O)N(c3ccc(-c4cn[nH]c4)c(OC)c3)C2=O)c1 [Example 93, 3-(3-methoxy-4-(1H-pyrazol-4-yl)phenyl)-1-(3-methoxybenzyl)imidazolidine-2,4-dione, TFA] | 6.70 to 7.70 |
| COc1cc(F)cc(CN2CC(=O)N(c3ccc(-c4cn[nH]c4)c(OC)c3)C2=O)c1 [Example 94, 1-(3-fluoro-5-methoxybenzyl)-3-(3-methoxy-4-(1H-pyrazol-4-yl)phenyl)imidazolidine-2,4-dione, TFA] | 6.70 to 7.70 |
| CC(c1ccccc1)N1CC(=O)N(c2ccc(-c3cn[nH]c3)cc2)C1=O (stereo not drawn) [Example 95, 3-(4-(1H-pyrazol-4-yl)phenyl)-1-(1-phenylethyl)imidazolidine-2,4-dione] | 6.70 to 7.70 |

| SMILES | pIC50 |
| --- | --- |
| COc1cc(N2C(=O)CN(C(C)c3ccccc3)C2=O)ccc1-c1cn[nH]c1 (stereo not drawn) [Example 96, 3-(3-methoxy-4-(1H-pyrazol-4-yl)phenyl)-1-(1-phenylethyl)imidazolidine-2,4-dione] | 5.70 to 6.70 |
| COc1cc(N2C(=O)CN(CCc3ccccc3)C2=O)ccc1-c1cn[nH]c1 [Example 97, 3-(3-methoxy-4-(1H-pyrazol-4-yl)phenyl)-1-phenethylimidazolidine-2,4-dione] | 5.70 to 6.70 |
| COc1cc(N2CC(=O)N(Cc3ccccc3)C2=O)ccc1-c1cn[nH]c1 [Example 98, 3-Benzyl-1-(3-methoxy-4-(1H-pyrazol-4-yl)phenyl)imidazolidine-2,4-dione] | 6.70 to 7.70 |
| COc1cc(N2CC(=O)N(Cc3ccccc3F)C2=O)ccc1-c1cn[nH]c1 [Example 99, 3-(2-fluorobenzyl)-1-(3-methoxy-4-(1H-pyrazol-4-yl)phenyl)imidazolidine-2,4-dione] | 6.70 to 7.70 |
| COc1cc(N2CC(=O)N(Cc3cccc(F)c3)C2=O)ccc1-c1cn[nH]c1 [Example 100, 3-(3-fluorobenzyl)-1-(3-methoxy-4-(1H-pyrazol-4-yl)phenyl)imidazolidine-2,4-dione] | 6.70 to 7.70 |
| COc1cc(F)cc(CN2C(=O)CN(c3ccc(-c4cn[nH]c4)c(OC)c3)C2=O)c1 [Example 101, 3-(3-fluoro-5-methoxybenzyl)-1-(3-methoxy-4-(1H-pyrazol-4-yl)phenyl) imidazolidine-2,4-dione] | 7.70 to 8.68 |
| COc1cc(N2CC(=O)N(Cc3c(F)cccc3F)C2=O)ccc1-c1cn[nH]c1 [Example 102, 3-(2,6-difluoro-benzyl)-1-(3-methoxy-4-(1H-pyrazol-4-yl)phenyl) imidazolidine-2,4-dione] | 6.70 to 7.70 |
| COc1cc(N2CC(=O)N(CCc3ccccc3)C2=O)ccc1-c1cn[nH]c1 [Example 103, 1-(3-methoxy-4-(1H-pyrazol-4-yl)phenyl)-3-phenethylimidazolidine-2,4-dione] | 6.70 to 7.70 |
| COc1cc(N2CC(=O)N(Cc3ccccc3Cl)C2=O)ccc1-c1cn[nH]c1 [Example 104, 3-(2-chlorobenzyl)-1-(3-methoxy-4-(1H-pyrazol-4-yl)phenyl)imidazolidine-2,4-dione] | 6.70 to 7.70 |
| COc1cccc(CN2C(=O)CN(c3ccc(-c4cn[nH]c4)c(OC)c3)C2=O)c1 [Example 105, 1-(3-methoxy-4-(1H-pyrazol-4-yl)phenyl)-3-(3-methoxy-benzyl)imidazolidine-2,4-dione] | 7.70 to 8.68 |
| COc1cc(N2CC(=O)N(C(C)c3ccccc3)C2=O)ccc1-c1cn[nH]c1 (stereo not drawn) [Example 106, 1-(3-methoxy-4-(1H-pyrazol-4-yl)phenyl)-3-(1-phenylethyl) imidazolidine-2,4-dione] | 6.70 to 7.70 |
| COc1cc(F)cc(CN2C(=O)CN(c3ccc(-c4cn[nH]c4)cc3)C2=O)c1 [Example 107, 1-(4-(1H-pyrazol-4-yl)phenyl)-3-(3-fluoro-5-methoxy-benzyl)imidazolidine-2,4-dione] | 7.70 to 8.68 |
| O=C1CN(c2ccc(-c3cn[nH]c3)cc2)C(=O)N1Cc1c(F)cccc1F [Example 108, 1-(4-(1H-pyrazol-4-yl)phenyl)-3-(2,6-difluorobenzyl) imidazolidine-2,4-dione] | 5.70 to 6.70 |
| CC(c1ccccc1)N1C(=O)CN(c2ccc(-c3cn[nH]c3)cc2)C1=O (stereo not drawn) [Example 109, 1-(4-(1H-pyrazol-4-yl)phenyl)-3-(1-phenylethyl) imidazolidine-2,4-dione] | 5.70 to 6.70 |
| O=C1CN(c2ccc(-c3cn[nH]c3)cc2)C(=O)N1Cc1ccccc1 [Example 110, 1-(4-(1H-pyrazol-4-yl)phenyl)-3-benzyl-imidazolidine-2,4-dione] | 6.70 to 7.70 |
| O=C1CN(c2ccc(-c3cn[nH]c3)cc2)C(=O)N1Cc1ccccc1Cl [Example 111, 1-(4-(1H-pyrazol-4-yl)phenyl)-3-(2-chlorobenzyl) imidazolidine-2,4-dione] | 7.70 to 8.68 |
| COc1cccc(CN2C(=O)CN(c3ccc(-c4cn[nH]c4)cc3)C2=O)c1 [Example 112, 1-(4-(1H-pyrazol-4-yl)phenyl)-3-(3-methoxybenzyl) imidazolidine-2,4-dione] | > 8.70 |
| O=C1CN(c2ccc(-c3cn[nH]c3)cc2)C(=O)N1CCc1ccccc1 [Example 113, 1-(4-(1H-pyrazol-4-yl)phenyl)-3-phenethyl-imidazolidine-2,4-dione] | 6.70 to 7.70 |
| O=C1CN(c2ccc(-c3cn[nH]c3)cc2)C(=O)N1Cc1cccc(F)c1 [Example 114, 1-(4-(1H-pyrazol-4-yl)phenyl)-3-(3-fluoro-benzyl)imidazolidine-2,4-dione] | 6.70 to 7.70 |
| O=C1CN(c2ccc(-c3cn[nH]c3)cc2)C(=O)N1Cc1cc(F)ccc1F [Example 115, 1-(4-(1H-pyrazol-4-yl)phenyl)-3-(2,5-difluorobenzyl) imidazolidine-2,4-dione] | 6.70 to 7.70 |
| COc1cccc(CN2CCN(c3ccc(-c4cn[nH]c4)cc3)C2=O)c1F [Example 116, 1-(4-(1H-Pyrazol-4-yl)phenyl)-3-(2-fluoro-3-methoxybenzyl)imidazolidin-2-one] | 6.70 to 7.70 |

Source: patent US10123993B2, “Cyclic ureas as inhibitors of rock” (BRISTOL-MYERS SQUIBB COMPANY, priority 2015, dated 2018)
